Assay results published in paper PMC12615753, “Glutathione as a taste modulator: molecular mechanisms of interaction with umami and sweet taste receptors” (Food Chemistry: Molecular Sciences, 2025).

Biological target: T1, hTAS1R1 H308A/rTAS1R3 (Homo sapiens, UniProt Q7RTX1, H308A)
T1 construct: UniProtKB number Q7RTX1–1); expressed in transfected cells; host or cells: HEK293T/17 (ATCC CRL-11268)
T1 sequence (Q7RTX1 21-841 H308A): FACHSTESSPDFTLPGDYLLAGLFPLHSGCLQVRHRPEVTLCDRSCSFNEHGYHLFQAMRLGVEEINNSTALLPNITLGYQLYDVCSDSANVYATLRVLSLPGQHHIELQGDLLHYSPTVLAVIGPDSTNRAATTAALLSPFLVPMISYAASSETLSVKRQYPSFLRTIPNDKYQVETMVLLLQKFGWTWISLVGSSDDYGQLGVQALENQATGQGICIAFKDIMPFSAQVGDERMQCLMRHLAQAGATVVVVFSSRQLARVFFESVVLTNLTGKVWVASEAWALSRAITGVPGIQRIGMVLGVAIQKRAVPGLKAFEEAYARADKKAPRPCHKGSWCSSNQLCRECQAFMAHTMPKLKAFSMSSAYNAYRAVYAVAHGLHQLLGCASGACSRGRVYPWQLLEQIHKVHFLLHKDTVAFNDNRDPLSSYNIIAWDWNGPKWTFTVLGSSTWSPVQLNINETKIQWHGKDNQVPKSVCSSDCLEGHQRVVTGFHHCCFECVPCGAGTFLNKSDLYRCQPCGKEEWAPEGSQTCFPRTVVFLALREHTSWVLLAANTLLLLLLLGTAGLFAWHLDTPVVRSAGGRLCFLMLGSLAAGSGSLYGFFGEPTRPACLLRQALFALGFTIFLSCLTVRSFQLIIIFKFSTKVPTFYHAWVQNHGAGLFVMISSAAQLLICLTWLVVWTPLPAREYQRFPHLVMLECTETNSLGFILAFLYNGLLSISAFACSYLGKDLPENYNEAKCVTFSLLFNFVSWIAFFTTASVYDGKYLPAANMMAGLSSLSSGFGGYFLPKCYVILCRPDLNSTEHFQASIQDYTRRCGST
T1 sequence (Q923K1 21-858 partner): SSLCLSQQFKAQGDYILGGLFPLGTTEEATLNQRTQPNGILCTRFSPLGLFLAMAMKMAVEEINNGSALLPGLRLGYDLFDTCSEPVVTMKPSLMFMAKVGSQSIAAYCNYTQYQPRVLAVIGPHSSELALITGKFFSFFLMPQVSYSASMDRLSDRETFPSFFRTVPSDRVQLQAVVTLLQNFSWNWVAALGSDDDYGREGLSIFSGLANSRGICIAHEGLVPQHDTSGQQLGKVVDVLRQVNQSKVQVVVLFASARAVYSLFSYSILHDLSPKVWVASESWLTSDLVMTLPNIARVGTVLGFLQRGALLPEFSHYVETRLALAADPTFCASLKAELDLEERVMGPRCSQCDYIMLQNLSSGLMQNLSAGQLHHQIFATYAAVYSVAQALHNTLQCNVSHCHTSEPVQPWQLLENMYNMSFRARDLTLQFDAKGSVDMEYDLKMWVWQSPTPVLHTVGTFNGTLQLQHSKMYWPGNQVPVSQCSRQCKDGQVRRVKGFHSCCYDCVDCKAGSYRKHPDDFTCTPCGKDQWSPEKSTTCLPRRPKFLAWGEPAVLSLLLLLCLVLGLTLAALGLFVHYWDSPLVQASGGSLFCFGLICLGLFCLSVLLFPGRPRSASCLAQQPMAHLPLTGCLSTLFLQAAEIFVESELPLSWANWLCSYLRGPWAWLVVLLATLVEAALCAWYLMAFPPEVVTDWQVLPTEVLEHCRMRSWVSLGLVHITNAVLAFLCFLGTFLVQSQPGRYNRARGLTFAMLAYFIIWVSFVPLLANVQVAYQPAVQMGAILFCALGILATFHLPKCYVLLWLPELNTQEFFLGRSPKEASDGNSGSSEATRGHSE
Assay: Calcium assay, hTAS1R1 mutant co-expressed with rTAS1R3
Format: cell-based, rat

Row | Structure (SMILES) | response to the agonist alone, vs WT (H308A) | EC50 [mM] | effect of the added compound (1 mM) on the response to L-Glu (H308A) | Max ∆F/F0 (H308A, GSH) | R1 = mutant EC50/WT EC50 (H308A, GSH)
1 | CCCC(CCC)NC(=O)c1ccc2c(c1)OCO2 [S807, N-(heptan-4-yl)benzo[d][1,3]dioxole-5-carboxamide, reference compound] | strongly affected |  |  |  | 
2 | N[C@@H](CCC(=O)N[C@@H](CS)C(=O)NCC(=O)O)C(=O)O [GSH, γ-L-glutamyl-L-cysteinyl-glycine] |  | 3.25 ± 0.225 | synergy was observed | 0.42 ± 0.01 | 1.3
